Where a name gives a salt, the structure may show the parent alone.

T1 sequence (P00742 235-488 limits assumed): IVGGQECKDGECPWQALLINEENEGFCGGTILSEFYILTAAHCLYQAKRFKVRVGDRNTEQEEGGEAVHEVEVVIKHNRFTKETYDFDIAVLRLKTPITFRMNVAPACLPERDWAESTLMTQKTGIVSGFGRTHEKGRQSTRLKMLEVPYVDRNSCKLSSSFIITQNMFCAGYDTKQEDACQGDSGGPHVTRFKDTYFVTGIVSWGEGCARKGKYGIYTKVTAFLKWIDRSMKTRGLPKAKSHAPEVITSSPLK
T1 sequence (P00742 41-179 partner limits assumed): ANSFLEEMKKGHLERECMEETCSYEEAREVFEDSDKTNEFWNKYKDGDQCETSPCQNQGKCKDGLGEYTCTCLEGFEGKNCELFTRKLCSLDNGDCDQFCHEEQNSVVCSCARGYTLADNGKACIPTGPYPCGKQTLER

Test system in one data set: not given
Test: not given
Settings: not given
A word on the melting point: it is the temperature, or range, at which the solid turns liquid. Consider `CN1CCc2nc(C(=O)N[C@@H]3C[C@@H](C(=O)N(C)C)CC[C@@H]3NC(=S)C(=O)Nc3ccc(F)cn3)sc2C1` (hydrate or solvate), for which the melting point was 176 to 179 °C (dec.).

On to `CN1CCc2nc(C(=O)N[C@@H]3CCS(=O)(=O)C[C@H]3NC(=O)c3cc4cc(F)ccc4[nH]3)sc2C1` (relative stereo) (as salt: hydrochloride) [Example 183, N-((3R*,4R*)-3-{[(5-Fluoroindol-2-yl)carbonyl]amino}-1,1-dioxohexahydro-1-thiopyran-4-yl)-5-methyl-4,5,6,7-tetrahydrothiazolo[5,4-c]pyridine-2-carboxamide hydrochloride], for which the melting point fell in the range of 244 to 249 °C.

A further data set addresses T1, human FXa (Homo sapiens, UniProt P00742).
T1 construct: purchased Enzyme Research Labolatories, Inc
Kind of data set: Determination of human FXa-inhibiting effect (IC50 value), chromogenic substrate S-2222. It is filed as biochemical. To be noted: substrate S-2222, absorbance at 405 nm, room temperature. From the text: Determination of Human FXa-Inhibiting Effect (IC50 Value):
As a control, Tris buffer was used in place of the test compound.
In general, IC50 refers to the point on the concentration scale where inhibition reaches its midpoint. A higher IC50 goes with a need for much substance. The molecule `C#Cc1ccc(NC(=O)C(=O)N[C@H]2CC[C@H](c3nnc(C)o3)C[C@H]2NC(=O)c2nc3c(s2)CN(C)CC3)nc1` [Ex. 402, N^1-(5-ethynylpyridin-2-yl)-N^2-((1S,2R,4S)-4-(5-methyl-1,3,4-oxadiazol-2-yl)-2-{[(5-methyl-4,5,6,7-tetrahydrothiazolo[5,4-c]pyridin-2-yl)carbonyl]amino}cyclohexyl)ethanediamide] came in with an IC50 of 1.1 nM.

`Cc1nnc([C@H]2CC[C@H](NC(=O)C(=O)Nc3ccc(Br)cn3)[C@H](NC(=O)c3nc4c(s3)CN(C)CC4)C2)o1` [Ex. 396, N^1-(5-bromo-2-pyridinyl)-N^2-((1S,2R,4S)-4-(5-methyl-1,3,4-oxadiazol-2-yl)-2-{[(5-methyl-4,5,6,7-tetrahydrothiazolo[5,4-c]pyridin-2-yl)carbonyl]amino}cyclohexyl)ethanediamide hydrochloride]: the IC50 came out at 1.1 nM.

The molecule `CN1CCc2nc(C(=O)N[C@@H]3C[C@@H](c4nnco4)CC[C@@H]3NC(=O)C(=O)Nc3ccc(Cl)cn3)sc2C1` [Ex. 385, N^1-(5-chloropyridin-2-yl)-N^2-[(1S,2R,4S)-2-{[(5-methyl-4,5,6,7-tetrahydrothiazolo[5,4-c]pyridin-2-yl)carbonyl]amino}-4-(1,3,4-oxadiazol-2-yl)cyclohexyl]ethanediamide] came in with an IC50 of 1.3 nM.

The molecule `CN1CCc2nc(C(=O)N[C@@H]3C[C@@H](n4cnnc4)CC[C@@H]3NC(=O)C(=O)Nc3ccc(Cl)cn3)sc2C1` [Ex. 394, N^1-(5-chloropyridin-2-yl)-N^2-(1S,2R,4S)-2-{[(5-methyl-4,5,6,7-tetrahydrothiazolo[5,4-c]pyridin-2-yl)carbonyl]amino}-4-(4H-1,2,4-triazol-4-yl)cyclohexyl)ethanediamide hydrochloride] showed a 50% inhibitory concentration (IC50) of 1.1 nM.

`Cc1nnc([C@H]2CC[C@H](NC(=O)C(=O)Nc3ccc(Cl)cn3)[C@H](NC(=O)c3nc4c(s3)CN(C)CC4)C2)o1` [Ex. 384, N^1-(5-chloropyridin-2-yl)-N^2-[(1S,2R,4S)-2-{[(5-methyl-4,5,6,7-tetrahydrothiazolo[5,4-c]pyridin-2-yl)carbonyl]amino}-4-(5-methyl-1,3,4-oxadiazol-2-yl)cyclohexyl]ethanediamide hydrochloride] had an IC50 of 1 nM.

`CN1CCc2nc(C(=O)N[C@@H]3C[C@@H](n4cccc4)CC[C@@H]3NC(=O)C(=O)Nc3ccc(Cl)cn3)sc2C1` [Ex. 413, N^1-(5-chloropyridin-2-yl)-N^2-[(1S,2R,4S)-2-{[(5-methyl-4,5,6,7-tetrahydrothiazolo[5,4-c]pyridin-2-yl)carbonyl]amino}-4-(1H-pyrrol-1-yl)cyclohexyl]ethanediamide hydrochloride] registered a 50% inhibitory concentration (IC50) of 1 nM.

The molecule `Cc1nnc([C@H]2CC[C@H](NC(=O)C(=O)Nc3ccc(Cl)s3)[C@H](NC(=O)c3nc4c(s3)CN(C)CC4)C2)o1` [Ex. 395, N^1-(5-chloro-2-thienyl)-N^2-((1S,2R,4S)-4-(5-methyl-1,3,4-oxadiazol-2-yl)-2-{[(5-methyl-4,5,6,7-tetrahydrothiazolo[5,4-c]pyridin-2-yl)carbonyl]amino}cyclohexyl)ethanediamide citric acid salt] showed an IC50 of 0.72 nM.

The record behind these values is patent US7576135B2, “Diamine derivatives” (Daiichi Pharmaceutical Co., Ltd., priority 2002, dated 2009).
